Holding throughout (format): cell-based
Test [1] deals with T1, sfRON (Homo sapiens, UniProt Q04912).
T1 construct: expressed in transfected cells; host or cells: HeLa (transient transfection, Lipofectamine-2000, sfRON-pcDNA plasmid)
T1 sequence (Q04912 913-1400 limits assumed): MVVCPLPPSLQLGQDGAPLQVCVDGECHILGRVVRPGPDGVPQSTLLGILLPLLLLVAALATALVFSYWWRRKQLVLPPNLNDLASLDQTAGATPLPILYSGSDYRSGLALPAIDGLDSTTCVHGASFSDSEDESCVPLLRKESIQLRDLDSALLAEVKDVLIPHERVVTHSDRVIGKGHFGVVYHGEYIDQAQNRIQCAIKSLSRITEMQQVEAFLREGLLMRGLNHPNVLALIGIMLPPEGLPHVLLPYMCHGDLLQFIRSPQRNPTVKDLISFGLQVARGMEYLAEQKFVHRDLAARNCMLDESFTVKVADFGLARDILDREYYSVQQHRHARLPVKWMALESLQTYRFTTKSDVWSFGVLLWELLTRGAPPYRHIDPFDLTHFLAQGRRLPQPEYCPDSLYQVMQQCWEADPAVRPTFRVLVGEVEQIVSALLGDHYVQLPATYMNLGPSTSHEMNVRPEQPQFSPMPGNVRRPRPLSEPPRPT
Nature of the test: sfRON cell mechanistic assay (HeLa), phosphorylated RON levels. Conditions: sfRON transfected HeLa cells, four hours incubation, at least duplicate experiments, read-out: sfRON mech IC50. As to the method: The cellular activity of the compounds of the present invention against RON may be determined by the following procedure. HeLa cells were plated in Falcon 3072 96-well plates in growth media (DMEM, 10% FBS, 1% L-glutamine) at a density of 10000 cells/well and incubated at 37° C., 5% CO2 overnight. The following day, cells were transfected with 0.2 μg sfRON-pcDNA plasmid DNA with 0.5 μL Lipofectamine-2000 per well in the presence of 50 μL OPTI-MEM, incubated at 37° C., 5% CO2 overnight. Costar 3915 96-well assay plates were coated with rabbit Anti-RON antibody at 2.0 μg/mL, sealed, and incubated overnight at 4° C. On the third day, coated plates were washed with PBS and blocked with 3% BSA. For the sfRON transfected cells, one-tenth volume of a 10× concentration of compounds was added to the wells in a 6-point dilution series. The dilution series was composed of an initial 1:5 dilution of a 10 mM DMSO stock solution of compound in DMSO, followed by a 1:10 dilution in growth media, for a final DMSO concentration on cells of 0.5%. Control wells were treated with 0.5% DMSO. The typical range of dilution was 10 μM to 3 nM. Once compound was added to the cells, plates were incubated for four hours at 37° C., 5% CO2. Plates were then washed in PBS, and lysed in triton-based lysis buffer. Lysates were transferred to the blocked capture plates. The phosphorylated RON levels were measured by incubating with a Goat polyclonal antibody against phosphorylated RON ([pYpY1238/1239]) followed by an anti-Goat antibody conjugated to HRP. Signal was measured on a Wallac Victor plate reader with luminance. The DMSO signal of the control wells was defined as 100% and the percent of inhibition of phosphorylated RON was expressed as percent of control. IC50 values were determined from the percent of control data using a standard four-parameter model.
The IC50 values of exemplary compounds of the present invention determined in a sfRON cell mechanistic assay using the HeLa cell line according to the procedures described herein in at least duplicate experiments are abbreviated as follows and are shown in Table 3: A, IC50≦0.1 μM; B, 0.1 μM<IC50≦0.5 μM; C, 0.5 μM<IC50≦1 μM; D, IC50>1 μM; ND, not determined. The Example # of Table 3 corresponds to the compound example number as illustrated in the Examples section.

In test [2] the test system is MKN45 cells. Briefly: MKN45 cell proliferation assay (CellTiter-Glo). Conditions: Homo sapiens, MKN-45, 72 h; MKN45 cell line, 3 days incubation, at least duplicate experiments; read-out: Prolif. IC50. On the procedure:
The effect of inhibitors on the proliferation of MKN45 cells was determined using the following protocol. MKN45 cells were plated in Corning 3917 96-well white tissue culture treated plates in growth medium (RPMI, 10% FCS) at a density of 5000 cells/well in a total volume of 135 μL and incubated at 37° C., 5% CO2, 95% humidity overnight. The following day, one-tenth volume of a 10× concentration of compounds was added to the wells in an 8-point dilution series. The dilution series was composed of an initial 1:5 dilution of a 10 mM stock of compound in DMSO, followed by serial 1:4 dilutions in DMSO, then a 1:20 dilution in growth medium prior to the 1:10 dilution into the cell plate. Final DMSO concentration on the cells was 0.1%, there were control wells treated with both 0.1% DMSO and no DMSO. The typical dilution range is 10 μM to 0.6 nM. Once the compound was added to the cells, plates were incubated for 3 days at 37° C., 5% CO2 at 95% humidity. On the third day, after allowing all cells and reagents to come to room temperature, 25 μL of CellTiter-Glo reagent (Promega # G7573) was added to the wells. Plates were shaken on a platform for 10 minutes prior to reading luminescence for 0.1 seconds. The signal of the control wells was taken as 100% growth and growth inhibition was expressed as percent of control. IC50 values were determined from the percent of control data using a standard four-parameter model.
The IC50 values of exemplary compounds of the present invention determined in a cell proliferation assay using the MKN45 cell line according to the procedures described herein in at least duplicate experiments are abbreviated as follows and are shown in Table 1: A, IC50≦0.1 μM; B, 0.1 μM<IC50≦0.5 μM; C, 0.5 μM<IC50≦2 μM; D, IC50>2 μM; ND, not determined. The Example # of Table 1 corresponds to the compound example number as illustrated in the Experimental section above.
Treatment of this cell line with a selective MET inhibitor led to induction of apoptosis and inhibition of proliferation, whereas non-MET-amplified cell lines were not affected. Smolen et al., Proc. Natl. Acad. Sci. USA, 103(7):2316-2321 (2006). This cell line is thus “driven” by MET, and antiproliferative effects correlate very well with the inhibition of MET phosphorylation so that the cell proliferation IC50 values can be used as surrogate for the MET cell mechanistic IC50 values. Under the assay conditions described herein, the IC50 values correlate nearly 1:1.
Background: Cellular ATP, detected with luciferase, serves as a proxy for viable cell number.

For test [3], the target named is T2, MET (Homo sapiens, UniProt P08581).
T2 construct: endogenous in cells; host or cells: MKN45
T2 sequence (P08581 25-1390): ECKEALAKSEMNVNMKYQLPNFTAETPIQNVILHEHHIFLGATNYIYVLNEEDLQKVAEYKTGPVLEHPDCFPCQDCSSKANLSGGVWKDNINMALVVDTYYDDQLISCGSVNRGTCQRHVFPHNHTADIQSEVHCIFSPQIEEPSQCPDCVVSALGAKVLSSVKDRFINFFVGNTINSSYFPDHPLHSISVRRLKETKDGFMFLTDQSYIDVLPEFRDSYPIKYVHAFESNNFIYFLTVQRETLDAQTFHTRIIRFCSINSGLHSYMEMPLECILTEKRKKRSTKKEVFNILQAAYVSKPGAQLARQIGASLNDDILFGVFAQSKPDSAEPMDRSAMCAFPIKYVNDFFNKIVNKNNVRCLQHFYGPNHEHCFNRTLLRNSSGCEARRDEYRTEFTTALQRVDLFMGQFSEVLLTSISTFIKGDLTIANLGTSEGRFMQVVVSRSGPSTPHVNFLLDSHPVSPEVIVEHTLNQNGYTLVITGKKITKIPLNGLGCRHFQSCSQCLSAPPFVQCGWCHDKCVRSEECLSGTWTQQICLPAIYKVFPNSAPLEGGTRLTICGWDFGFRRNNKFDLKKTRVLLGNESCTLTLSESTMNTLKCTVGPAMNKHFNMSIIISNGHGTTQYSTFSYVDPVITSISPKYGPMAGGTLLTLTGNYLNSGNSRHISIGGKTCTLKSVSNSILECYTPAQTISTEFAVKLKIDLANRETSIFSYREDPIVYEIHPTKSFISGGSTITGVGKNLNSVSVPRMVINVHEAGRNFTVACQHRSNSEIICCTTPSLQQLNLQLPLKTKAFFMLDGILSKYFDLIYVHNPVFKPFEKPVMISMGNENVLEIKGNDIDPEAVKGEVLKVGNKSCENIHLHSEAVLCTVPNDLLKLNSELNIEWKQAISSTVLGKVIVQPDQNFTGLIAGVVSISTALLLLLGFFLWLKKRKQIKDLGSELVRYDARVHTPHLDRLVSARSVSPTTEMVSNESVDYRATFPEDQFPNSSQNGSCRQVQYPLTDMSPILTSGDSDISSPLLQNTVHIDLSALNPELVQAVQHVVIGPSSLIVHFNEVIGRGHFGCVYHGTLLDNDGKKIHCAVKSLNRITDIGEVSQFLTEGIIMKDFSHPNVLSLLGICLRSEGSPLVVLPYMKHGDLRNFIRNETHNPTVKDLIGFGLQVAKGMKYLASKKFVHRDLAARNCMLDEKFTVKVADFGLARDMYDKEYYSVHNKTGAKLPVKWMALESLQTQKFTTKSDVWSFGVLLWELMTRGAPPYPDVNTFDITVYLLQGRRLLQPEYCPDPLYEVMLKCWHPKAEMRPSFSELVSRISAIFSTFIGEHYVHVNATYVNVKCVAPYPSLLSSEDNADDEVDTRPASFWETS
Briefly: MET cell mechanistic assay (MKN45), phosphorylated MET levels. The conditions noted are these: MKN45 cell line, four hours incubation, at least duplicate experiments, read-out: MET mech IC50. On the procedure:
The cellular activity of the compounds of the present invention against MET may be determined by the following procedure. MKN45 cells were plated in Falcon 3072 96-well plates in growth media (RPMI, 10% FBS, 1% L-glutamine) at a density of 5000 cells/well and incubated at 37° C., 5% CO2 overnight. The following day, one-tenth volume of a 10× concentration of compounds was added to the wells in a 6-point dilution series. The dilutions series was composed of an initial […] in DMSO, followed by a […] in growth media, for a final DMSO concentration on cells of 0.5%. Control wells were treated with 0.5% DMSO. The typical range of dilution was 10 μM to 3 nM. Once compound was added to the cells, plates were incubated for four hours at 37° C., 5% CO2. Plates were then washed in PBS, and lysed in triton-based lysis buffer. Lysates were transferred to a precoated capture plate made by Biosource (Cat # KHO0281). The phosphorylated MET levels were measured by incubating with a rabbit polyclonal antibody against phosphorylated MET ([pYpYpY1230/1234/1235]) followed by an anti-rabbit antibody conjugated to HRP. Signal was measured on a Wallac Victor plate reader at 450 nm. The DMSO signal of the control wells was defined as 100% and the percent of inhibition of phosphorylated MET was expressed as percent of control. IC50 values were determined from the percent of control data using a standard four-parameter model.
The IC50 values of exemplary compounds of the present invention determined in a MET cell mechanistic assay using the MKN45 cell line according to the procedures described herein in at least duplicate experiments are abbreviated as follows and are shown in Table 2: A, IC50≦0.1 μM; B, 0.1 μM<IC50≦0.5 μM; C, 0.5 μM<IC50≦2 μM; D, IC50>2 μM; ND, not determined. The Example # of Table 2 corresponds to the compound example number as illustrated in the Experimental section above.

By IC50 is commonly meant the midpoint of a concentration-inhibition curve. Regarding `C[C@H](c1c(Cl)ccc(F)c1Cl)n1ccc2ncc(-c3cnn(C[C@H](O)CO)c3)cc21` [Example 8, (2S)-3-(4-{1-[(1R)-1-(2,6-Dichloro-3-fluorophenyl)ethyl]-1H-pyrrolo[3,2-b]pyridin-6-yl}-1H-pyrazol-1-yl)propane-1,2-diol], the half-maximal inhibitory concentration (IC50) in test [1] lay within 500 to 1000 nM; in test [2], 100 to 500 nM.
Regarding `CC(c1c(Cl)ccc(F)c1Cl)c1c[nH]c2nnc(-c3cnn(C4CCNCC4)c3)cc12` (stereo not shown) [Example 16, 5-[1-(2,6-Dichloro-3-fluorophenyl)ethyl]-3-[1-(piperidin-4-yl)-1H-pyrazol-4-yl]-7H-pyrrolo[2,3-c]pyridazine], the IC50 in test [3] and in test [2] was greater than 2000 nM each time.
For “7-[(2,6-dichloro-3-fluorophenyl)methoxymethyl]-2-(1-piperidin-4-yl-1H-pyrazol-4-yl)-5H-pyrrolo[2,3-b]pyrazine [Example 1]”, in test [3], the IC50 fell in the range of 100 to 500 nM.
Turning to `C[C@H](c1c(Cl)ccc(F)c1Cl)n1ccc2ncc(-c3cnn([C@H]4CC[C@H](O)CC4)c3)cc21` [Example 7, trans-4-(4-{1-[(1R)-1-(2,6-Dichloro-3-fluorophenyl)ethyl]-1H-pyrrolo[3,2-b]pyridin-6-yl}-1H-pyrazol-1-yl)cyclohexanol], the IC50 in test [1] and in test [2] was 100 to 500 nM in each case.
Take `C[C@H](c1c(Cl)ccc(F)c1Cl)n1ccc2ncc(-c3cnn(C4CCNCC4)c3)cc21` [Example 5, 1-[(1R)-1-(2,6-Dichloro-3-fluorophenyl)ethyl]-6-[1-(piperidin-4-yl)-1H-pyrazol-4-yl]-1H-pyrrolo[3,2-b]pyridine]: the IC50 is 500 to 1000 nM in test [1] and no more than 100 nM in test [2].
Turning to `CC(c1c(Cl)ccc(F)c1Cl)c1c[nH]c2ncc(-c3cnn(C4CCNCC4)c3)nc12` (stereo not shown) [Example 2, 7-[1-(2,6-dichloro-3-fluorophenyl)ethyl]-2-(1-piperidin-4-yl-1H-pyrazol-4-yl)-5H-pyrrolo[2,3-b]pyrazine], the IC50 in test [3] and in test [2] was 100 to 500 nM throughout.
Regarding `C[C@H](c1c(Cl)ccc(F)c1Cl)n1ccc2ncc(-c3cnn(C)c3)cc21` [Example 4, 1-[(1R)-1-(2,6-dichloro-3-fluorophenyl)ethyl]-6-(1-methyl-1H-pyrazol-4-yl)-1H-pyrrolo[3,2-b]pyridine], the IC50 in test [1] was greater than 1000 nM; in test [2], 500 to 2000 nM.
On to `C[C@H](c1c(Cl)ccc(F)c1Cl)n1ccc2ncc(-c3cnn(C4CCN(C=O)CC4)c3)cc21` [Example 6, 4-(4-{1-[(1R)-1-(2,6-Dichloro-3-fluorophenyl)ethyl]-1H-pyrrolo[3,2-b]pyridin-6-yl}-1H-pyrazol-1-yl)piperidine-1-carbaldehyde], for which the IC50 in test [1] is 500 to 1000 nM; in test [2] it was 100 to 500 nM.
Consider `CC(c1c(Cl)ccc(F)c1Cl)c1c[nH]c2ncc(-c3cnn(C4CCN(C=O)CC4)c3)nc12` (stereo not shown) [Example 3, 4-(4-{7-[1-(2,6-dichloro-3-fluorophenyl)ethyl]-5H-pyrrolo[2,3-b]pyrazin-2-yl}-1H-pyrazol-1-yl)piperidine-1-carbaldehyde], for which the figures for the IC50 in test [3] and in test [2] were 100 to 500 nM and 500 to 2000 nM, respectively.
With `COc1ccc(F)c(Cl)c1[C@@H](C)c1n[nH]c2ncc(-c3cnn([C@H]4CC[C@H](O)CC4)c3)cc12` [Example 10, trans-4-(4-{3-[(1R)-1-(2-Chloro-3-fluoro-6-methoxyphenyl)ethyl]-1H-pyrazolo[3,4-b]pyridin-5-yl}-1H-pyrazol-1-yl)cyclohexanol], the IC50 was 100 to 500 nM in test [1] and no more than 100 nM in test [2].

The values are drawn from patent US20130072495A1, “FUSED BICYCLIC KINASE INHIBITORS” (OSI Pharmaceuticals, LLC, priority 2010, published 2013).
